The results in this text go back to patent US10167258B2, “Inhibitors of mitochondrial pyruvate dehydrogenase kinase isoforms 1-4 and uses thereof” (The Board of Regents of the University of Texas System, priority 2013, dated 2019).

Each structure is given as a SMILES string.

Series [1] in a line: Solubility in DMSO used in the formulation. To be noted: compared with PS8. Type of series: physicochemical.
The subject of series [2] is PDC. Kind of series: PDC flux in perfused hearts from DIO mice by hyperpolarized 13C NMR. To be noted: single dose 70 mg/kg IP, 8-hr.
Experimental: Metabolism of [1-^13C]pyruvate to [1-^13C]alanine, [1-^13C]lactate, H^13CO3^− and ^13CO2 were detected in real time by ^13C NMR spectra, following the injection of 2 mM HP [1-^13C]pyruvate into perfused heart (FIG. 10A).
Series [3] addresses PDK3 (Homo sapiens, UniProt Q15120). Nature of the series: Assay for inhibition of PDK activity, PDK3. To be noted: absence of E2/E3BP core (−). Type of series: biochemical. Set-up: made in house. The method, then:
(§1) Recombinant human PDK2 was expressed and purified as a N terminal His6-tagged SUMO fusion protein with a tobacco-etch-virus protease (TEV) cleavage site in front of the N-terminal PDK2 sequence (26), and was used directly for the activity assay and binding affinity analyses. For crystallization, the protein was subjected to a TEV-protease digestion, and the untagged PDK2 protein was purified on a Superdex 200 column in 20 mM Tris-HCl (pH 8.0), 150 mM NaCl and 5 mM DTT. The purified protein was concentrated to 35-40 mg/ml and stored at −80° C. in small aliquots. Recombinant human PDK1, PDK3 and PDK4 were expressed and purified as described previously (26).
(§2) . The remaining steps were described previously (26). IC50 values were obtained by the curve fitting of inhibition isotherms using Prism 6 (GraphPad software, Inc.).

Series [4] deals with T1, human PDK1 (Homo sapiens, UniProt Q15118).
T1 construct: made in house
T1 sequence (Q15118 29-436): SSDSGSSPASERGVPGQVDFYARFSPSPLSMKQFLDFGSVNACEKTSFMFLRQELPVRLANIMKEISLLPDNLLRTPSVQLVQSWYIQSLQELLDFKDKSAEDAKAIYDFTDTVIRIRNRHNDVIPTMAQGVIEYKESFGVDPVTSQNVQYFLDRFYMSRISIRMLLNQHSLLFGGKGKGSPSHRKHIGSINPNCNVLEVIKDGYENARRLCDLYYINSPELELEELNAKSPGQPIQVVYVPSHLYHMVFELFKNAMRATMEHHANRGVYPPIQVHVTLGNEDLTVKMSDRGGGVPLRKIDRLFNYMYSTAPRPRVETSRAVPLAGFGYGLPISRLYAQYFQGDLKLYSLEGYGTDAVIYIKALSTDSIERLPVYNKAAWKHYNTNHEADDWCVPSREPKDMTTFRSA
Kind of series: Assay for inhibition of PDK activity, PDK1. Type of series: biochemical. To be noted: absence of E2/E3BP core (−). How it is done:
as §1, §2

The target in series [5] is T2, N-terminal domain of human Hsp90 (Homo sapiens, UniProt P07900).
T2 construct: the N-terminal domain (residue 1-236) of human Hsp90; His6 (N); SUMO (N); made in house; host or cells: E. coli BL21
Nature of the series: Isothermal titration calorimetry (ITC), binding to Hsp90 N-terminal domain. To be noted: read-out: Kd, nM for Hsp 90. The method, then:
The sequence encoding the N-terminal domain was amplified and cloned into the pSUMO expression vector (Lifesensors, Malvern, Pa.). The fusion protein of His6-tagged SUMO-Hsp90 N-terminal domain was expressed in E. coli BL21 cells and purified with Ni-NTA resin (Qiagen) and on Superdex-200 column in 20 mM Tris.HCl, pH 7.5 and 500 mM NaCl.
The PDK2 or Hsp90 N-terminal domain protein was dialyzed against one liter of the dialysis buffer containing 50 mM Tris-Cl, pH 7.5, 50 mM KCl, 1 mM MgCl2, and 0.5 mM β-mercaptoethanol. […] All of the ITC data were initially analyzed by the NITPIC program (32) to construct the baseline, followed by curve-fitting in Origin 7 to obtain binding parameters.

Sequence of PDK3 (Q15120 whole entry, the tested form may be a part): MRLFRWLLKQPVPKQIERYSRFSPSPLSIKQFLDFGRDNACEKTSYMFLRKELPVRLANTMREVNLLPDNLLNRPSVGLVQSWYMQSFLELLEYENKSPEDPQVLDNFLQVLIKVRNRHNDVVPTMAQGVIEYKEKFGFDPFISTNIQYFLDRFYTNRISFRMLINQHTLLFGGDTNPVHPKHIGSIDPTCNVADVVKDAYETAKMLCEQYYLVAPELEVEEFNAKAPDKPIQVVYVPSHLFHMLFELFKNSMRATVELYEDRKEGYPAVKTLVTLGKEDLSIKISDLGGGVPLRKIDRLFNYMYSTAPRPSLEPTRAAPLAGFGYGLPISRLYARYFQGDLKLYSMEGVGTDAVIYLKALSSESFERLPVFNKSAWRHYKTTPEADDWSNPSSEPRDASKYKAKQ

For the molecule `O=S(=O)(c1ccc(O)cc1O)N1Cc2cc(O)cc(O)c2C1` [PS10, 2-((2,4-dihydroxyphenyl)sulfonyl)isoindoline-4,6-diol], the “solubility in DMSO” value in series [1] is given as “better solubility in DMSO”. Also, in series [2], the “cardiac PDC flux in DIO mice” value is on record as “smaller increase”. The figures for the IC50 in series [3] and in series [4] were 21.3 µM and 2.07 µM, respectively. For the same molecule, the dissociation constant (Kd) (usually the concentration at which binding is half-saturated) in series [5] was found to be 47000 nM.
